Experimental data published in ChEMBL document CHEMBL1128976, “Unsaturated thioacetic acids as novel mechanism-based inhibitors of peptidylglycine -hydroxylating monooxygenase” (Bioorg Med Chem Lett, 1996).

Target: T1, Peptidyl-glycine alpha-amidating monooxygenase (Homo sapiens) (UniProt P19021)
T1 sequence (whole entry): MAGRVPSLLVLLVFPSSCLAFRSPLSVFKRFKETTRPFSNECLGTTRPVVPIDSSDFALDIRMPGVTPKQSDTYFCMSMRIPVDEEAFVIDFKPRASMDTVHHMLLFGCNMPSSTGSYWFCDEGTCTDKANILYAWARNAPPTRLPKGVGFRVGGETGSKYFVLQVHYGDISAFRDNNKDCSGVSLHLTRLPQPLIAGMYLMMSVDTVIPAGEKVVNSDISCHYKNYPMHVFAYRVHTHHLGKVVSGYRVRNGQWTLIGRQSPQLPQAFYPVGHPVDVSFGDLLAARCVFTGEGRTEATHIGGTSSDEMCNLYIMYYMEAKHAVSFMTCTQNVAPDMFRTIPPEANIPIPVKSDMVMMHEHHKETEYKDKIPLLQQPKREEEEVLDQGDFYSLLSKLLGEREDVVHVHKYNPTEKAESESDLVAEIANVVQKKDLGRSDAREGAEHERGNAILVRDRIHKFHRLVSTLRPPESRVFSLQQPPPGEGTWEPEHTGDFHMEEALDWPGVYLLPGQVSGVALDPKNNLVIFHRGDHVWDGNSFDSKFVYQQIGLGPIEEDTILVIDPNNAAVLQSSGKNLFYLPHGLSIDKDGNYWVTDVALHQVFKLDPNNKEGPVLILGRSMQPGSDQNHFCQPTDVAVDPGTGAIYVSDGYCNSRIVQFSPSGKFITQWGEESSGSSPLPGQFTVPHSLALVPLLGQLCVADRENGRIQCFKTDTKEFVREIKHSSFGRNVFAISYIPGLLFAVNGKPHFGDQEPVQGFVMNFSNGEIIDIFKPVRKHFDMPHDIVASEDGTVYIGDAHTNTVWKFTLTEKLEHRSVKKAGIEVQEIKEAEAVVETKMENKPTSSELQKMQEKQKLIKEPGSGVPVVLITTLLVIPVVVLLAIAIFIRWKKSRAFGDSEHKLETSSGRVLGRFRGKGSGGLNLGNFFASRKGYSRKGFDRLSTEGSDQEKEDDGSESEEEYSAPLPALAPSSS
Assay: Kinetic constant for inhibition of peptidylglycine alpha hydroxylating monooxygenase (PHM) was determined
Conditions: Equus caballus

| K inact [min⁻¹] | SMILES |
| --- | --- |
| 0.06 | O=C(O)CSC#Cc1ccccc1 |
| 0.2 | O=C(O)CS/C=C/c1ccccc1 |
